Assay results taken from patent US20230381163A1, “DABIGATRAN COMPOSITIONS AND METHODS OF TREATING AGE-RELATED MACULAR DEGENERATION” (The United States Government As Represented By The …, priority 2022, published 2023).

Tests used:
thrombin [1] = biological target: thrombin (Mus musculus, UniProt P19221)
Description: Thrombin activity assay. Thrombin activity was measured according to a methodology described by Ludwicka with modifications (Ohba, T., et al. (1994). Am J Respir Cell Mol Biol 10, 405-412). Thrombin specific peptide Boc-Val-Pro-Arg-7-amido-4-methylcoumarin hydrochloride (Sigma-Aldrich) was reconstituted in molecular grade ice-cold H2O at a concentration of 0.5 mg/ml and used as substrate.
It was test whether dabigatran would alter the course of angiogenesis or repair, by feeding animals with dabigatran chow during the two different phases.

[2] = system: VEGF secretion in ARPE-19 cells; assay: VEGF secretion into apical supernatant of ARPE-19 monolayers (ELISA); format: cell-based, human; settings: dabigatran, thrombin-treated cells
Description: Cell culture experiments: Cells. […] Frontiers in Aging Neuroscience 9).
VEGF ELISA. VEGF in the supernatant was measured using the Quantikine® Human VEGF Immunoassay (R & D System) according to the manufacturer's protocol. In brief, 200 μl of standard/sample was mixed with 50 μl of assay diluent and added to the plate precoated with the capture antibody. After washing, 200 μl of the VEGF detection antibody (polyclonal antibody specific for human VEGF conjugated to horseradish peroxidase) was added, followed by freshly prepared substrate reagents (stabilized hydrogen peroxide and tetramethylbenzidine). The reaction was terminated using 50 μl of stop solution and absorbance was measured at λ1 450 nm with wavelength correction λ2 at 540 nm. VEGF concentration of samples were calculated comparing the absorbance with the standards and converted into fold change considering the serum-free condition as 1 in the scale.

complement component C3 = assay: Thrombin-mediated C3 cleavage in apical supernatants of ARPE-19 cells (western blot); format: cell-based, human; settings: 10 μM
Description: Second, it was tested whether thrombin can cleave complement components (Huber-Lang, M., et al. (2006). Nat Med 12, 682-687; and Krisinger, M. J., et al. (2012). Blood 120, 1717-1725), specifically C3 and C5, producing cleavage products potentially different from those produced by classical convertases. To test the effects of thrombin on complement cleavage, the apical supernatants of treated ARPE-19 cell monolayers were analyzed by western blotting. Cleavage of C3α was evaluated using an antibody specific for C3a (FIG. 5A, left-hand blot). The C3a antibody detected C3, the C3α band as well as other fragments containing C3a. Thrombin caused a concentration dependent cleavage of complement component C3 (˜190 kDa), caused reduction of the 120 kDa C3a band and generation of a new 80 kDa fragment. Fragments at 32 kDa and 9-10 kDa with higher doses of thrombin treatment (FIG. 5A, 10 U/mL) were also observed. The 9-10 kDa band ran at the same molecular weight as purified C3a (FIG. 11). The reduction of the 120 kDa fragment was correlated with the generation of the 80 kDa fragment (FIG. 5B). The loss of the 120 kDa fragment was prevented by either dabigatran (10 μM) or the C3 inhibitor compstatin (100 μM), which inhibits complement both on cell membranes as well as in fluid phase, but not by TT30 (10 μM), which is an inhibitor that prevents membrane-bound AP activation (FIG. 5C). […]

VEGF = VEGF levels in RPE/choroid of CNV mice (western blot); format: in vivo, mouse
From the text: (§1) Pathway analysis in CNV. Based on the results in cells, an analysis in animals followed, focusing on VEGF levels in the RPE/choroid, complemented by CTGF analysis and complement activation (C3d production and binding). RPE/choroid samples were collected at the end of the angiogenesis experiment (day 6) and after the final OCT analysis in the repair experiment (day 23) and compared to naive controls (no CNV and no dabigatran treatment).

CTGF = CTGF levels in RPE/choroid of CNV mice (western blot); format: in vivo, mouse; settings: end of repair period (23 days), P<0.01
From the text: as §1

[3] = dabigatran chow, ˜10 mg/kg bodyweight per day; cited from earlier work
thrombin [4] = biological target: thrombin (Homo sapiens, UniProt P00734); assay: Thrombin activity in cell-free system; settings: 10 μM, thrombin 10-500 U/mL
Description: Thrombin activity in cell-free system. To measure the level of active thrombin in cell-free system, known concentrations of thrombin were prepared in 100 μl of assay buffer (50 mM Tris, 100 mM NaCl, and 0.01% BSA; pH 7.5), subsequently 50 μl of thrombin substrate was added and incubated at 37° C. Fluorescence was measured at 405 nm using the Biotek Synergy HT Microplate Reader and thrombin activity was determined by extrapolation from a thrombin standard curve. Effects of inhibitors were tested by pre-incubating the inhibitors with thrombin, before substrate incorporation.

[5] = system: CTGF expression in ARPE-19 cells; assay: Thrombin-induced CTGF expression in ARPE-19 cell lysates (western blot); settings: dabigatran 10 μM, thrombin 1 U/mL
Description: Cell culture experiments: Cells. Human ARPE-19 (ATCC® CRL-2302™; American Type Culture Collection, Manassas VA) cells were cultured in DMEM cell culture media (Gibco/ThermoFisher Scientific) containing high glucose DMEM with D-glucose (4.5 g/L), L-glutamine, sodium pyruvate (110 mg/L), Penicillin and Streptomycin (1×) and 10% of FBS. Cells (<passage 10 after purchase) were expanded in T75 cell culture flasks at 37° C., in the presence of 5% CO2. Confluent cells were trypsinized with 0.05% trypsin (Gibco), and equal numbers of cells were seeded on 6-well transwell filters/plate (Costar). […] Integrity of the cell monolayer was assessed by Transepithelial resistance (TER) measurements using an EVOM volt-ohmmeter (World Precision Instruments) four weeks after plating. RPE monolayers with a stable TER repeatedly measured as ˜40-45 S2 cm 2 were used for these experiments.
Treatments. Prior to each experiment, the cell monolayer was washed with serum-free medium (SFM) and maintained in SFM for 24 hours. […] Treatments were performed on the apical side of the transwell membrane, which represents the retinal side of the RPE in vivo. Some of the cells were treated with thrombin (EMD Millipore Corp), complement components C3a, C5a (Complement Technology), thrombin agonist PAR1-AP (Sigma-Aldrich; amino acid sequence SFLLRN (SEQ ID NO: 1)), thrombin inhibitor dabigatran etexilate (Sigma-Aldrich), C3 inhibitor compstatin (R&D Systems), AP inhibitor TT30 (Alexion Therapeutics), a protease inhibitor alpha1-antitrypsin (Sigma-Aldrich), and the thrombin receptor proteinase activated receptor 1 inhibitor SCH 79797 (Sigma-Aldrich). Treatments were performed 60 min prior to the addition of thrombin. Cell culture supernatant and lysate were collected after specific time points or after 24 hrs of treatment and stored at −20° C. for later use.
Western blotting. […] Cell lysates were collected in RIPA cell lysis buffer containing 150 mM NaCl, 1.0% IGEPAL® CA-630, 0.5% sodium deoxycholate, 0.1% SDS, 50 mM Tris (pH 8.0) (Sigma-Aldrich) in presence of 1×protease inhibitor (Sigma-Aldrich). Equal amount of each samples were loaded on 4-20% Criterion™ TGX™ precast gels (Bio-Rad Laboratories, Inc.) (Annamalai, B., et al. (2020). Invest Ophthalmol Vis Sci 61, 45). Proteins were transferred to a nitrocellulose membrane and incubated in primary antibody followed by appropriate secondary antibodies coupled to peroxidase, followed by band development and detection using Clarity™ Western ECL blotting substrate (Bio-Rad Laboratories, Inc.) and chemiluminescent detection. Protein bands were scanned and densities quantified using ImageJ software. The following antibodies were used: C3a (1:1000; Complement Technology), C5a (1:1000; Abcam), connective tissue growth factor/CTGF (1:1000; Abcam), C3d anti-C3d (clone 11, 1:1000; generation of the antibody is described in (Thurman, J. M., et al. (2013). J Clin Invest 123, 2218-2230)), VEGF (1:1000, Santa Cruz Biotechnology, Inc.), β-actin (1:2000; Cell Signaling Technology) and concentrations selected based on the data sheet recommendations.
ARPE-19 cell monolayers were treated with thrombin (0.5-10 U/ml) and cell lysates were collected and analyzed for CTGF levels at 4 hrs post treatment by western blotting.

[6] = system: C3d and C5b-9 deposition on ARPE-19 cells; assay: C3d and MAC (C5b-9) deposition on ARPE-19 cell surfaces (immunofluorescence); settings: 10 μM, compared with thrombin-treated cells (20 U/mL)
Description: ARPE-19 cells were grown on transwell membranes in 6 well plates (Thurman, J. M., et al. (2009). J Biol Chem 284, 16939-16947), treated with thrombin and inhibitors, and fixed in 4% paraformaldehyde for 15 min at room temperature. Primary antibodies against C5b-9 (1:200, Abcam) and C3d (1:100) (Thurman, J. M., et al. (2013). J Clin Invest 123, 2218-2230) were diluted in blocking buffer (10% normal goat serum, 3% BSA, 0.4% Triton X-100 in PBS) and cells were incubated for overnight at 4° C., followed by washes and incubation with goat anti-rabbit Alexa Fluor® 568—conjugated IgG or donkey anti-goat Alexa Fluor® 488-conjugated secondary antibodies (1:500; Thermo Fisher Scientific), respectively. Nuclei were identified with DAPI (Sigma-Aldrich). Transwell membranes were covered with aqua-mount mounting media (Thermo Scientific), cover slipped and photographed (Olympus 1X73 Research Inverted Microscope equipped with cellSens imaging software).
First, it was tested whether thrombin results in deposition of C3d and the assembly of MAC on ARPE-19 cell surfaces. ARPE-19 cell monolayers were treated apically with thrombin and deposition of MAC (C5b-9; red) and C3d (green) were examined by immunofluorescence staining (FIG. 4A).

Question: What does the source list for `CCCCCCOC(=O)NC(=N)c1ccc(NCc2nc3cc(C(=O)N(CCC(=O)OCC)c4ccccn4)ccc3n2C)cc1`?
Answer: reduction of thrombin activity in retina/RPE/choroid tissues (thrombin [1]; mice on dabigatran chow vs control mice, P=0.04): ~10%; reduction of thrombin activity in serum (thrombin [1]; mice on dabigatran chow ˜10 mg/kg per day vs control mice, P=0.003): ~35%; thrombin activity in retina/RPE/choroid tissues (thrombin [1]; mice on dabigatran chow, control: 100±3.1): 91.1±2.6; thrombin activity in serum (thrombin [1]; mice on dabigatran chow, control: 100±7.6): 65.4±5.1; reduction of thrombin-induced VEGF content [2]: ~35%; effect on thrombin-mediated loss of the 120 kDa C3 fragment (complement component C3): prevented; effect on VEGF levels in RPE/choroid (VEGF; 6-day time point, angiogenesis phase, P=0.9): no effect; effect on VEGF levels in RPE/choroid (VEGF; 23-day time point, repair phase, P=0.001): significantly reduced; effect on CTGF levels in RPE/choroid (CTGF): significantly reduced; blood plasma concentration of dabigatran [3]: 372 ± 30 ng/mL; elongation of coagulation times [3]: 3 fold; effect on thrombin enzyme activity (thrombin [4]): significantly reduce; reduction of thrombin-induced CTGF expression [5]: 3.2 fold; reduction of C5b-9 deposition [6]: ~50%; reduction of C3d deposition [6]: ~60%
